Where two headings read alike, the source gives them in different places. Marks after values point to notes of the source that are not given here.
Experiments:
pigs [1] = assay: Oxidative rancidity of pork chops (2-thiobarbituric acid, TBA number); format: in vivo
Protocol: (§1) Young pigs were fed a diet containing 15 IU/kg feed (=15 mg/kg feed=[…]) vitamin E (in the form of alpha-tocopherol acetate) up to 120 pounds. Upon reaching 120 pounds, the pigs were randomly assigned to treatments using weight as a blocking factor. Sixteen pigs were allocated to the control diet, while thirteen pigs were allocated to each test diet. Treatments consisted of typical corn-soybean meal based diets with three levels of dietary tocopherol: (1) Control diet (15 mg/kg feed alpha-tocopherol acetate); (2) diets supplemented with 150, 300 or 450 mg/kg feed alpha-tocopherol acetate; and (3) diets supplemented with 150, 300 or 450 mg/kg feed gamma-tocopherol. Diets were formulated to provide adequate levels of all nutrients and fed in four phases.
(§2) Pork chops (2.5 cm) were cut from vacuum-packaged pork loins that had been stored for 21 days at 1 degree C. Freshly cut chops were placed on styrofoam trays with DriLoc (V 50 pads) and overwrapped with PVC (23,250 cc/m 2 /24 hours oxygen permeability). Pork chops were placed in simulated retail display at 2±3 degrees C. for six days. Product temperature was monitored during the display period. Chops were analyzed for lightness (L*), redness (a*), and yellowness (b*) using Illuminant C or D65 on a Minolta Chroma Meter. Three readings per chop were taken on display days 0, 1, 2, 3, 4 and 5.
(§3) Determination of pH was made on days 0 and 5 as an indication of pork spoilage. Oxidative rancidity was measured using 2-Thiobarbituric acid to determine TBA number. Final values were expressed as mg malonaldehyde per 1000 grams of meat. Purge was determined on the vacuum-packaged pork loins.
(§4) Data were analyzed using the GLM procedure of SAS. Due to a limited number of observations from the 150 IU alpha-tocopherol treatment, no estimates of carcass or loin quality measures are presented for that treatment. Data collected over a period of days were also analyzed as a splitplot. Contrasts were made between the Control and added tocopherol diets, Control and alpha-tocopherol, Control and gamma-tocopherol, and alpha- versus gamma-tocopherol.

[2] = in vivo; cited from earlier work
pigs [3] = format: in vivo, swine
From the text: The data was derived from the same swine tests as in Example 1. Data from 43 samples was ranked in descending order for four parameters: alpha-tocopherol concentration, gamma-tocopherol concentration, alpha plus gamma-tocopherol concentration, and ratio of alpha-tocopherol to gamma-tocopherol. The data was divided into four quartiles, averaged, and compared to the corresponding quartile loin pH average.

pigs [4] = assay: Visual panel appearance score of pork loin chops in simulated retail display; format: in vivo
Protocol: as §1, §2
Loin chop color was evaluated using a trained visual panel of 10 people. Color score was determined using a five-point scale with a score of one (1) representing a very bright pinkish gray and a score of five (5) representing a dull dark red to brown color representative of color deterioration.
as §4

pigs [5] = assay: Japanese color score of pork loin in swine feeding trial; format: in vivo
Protocol: (§5) Applicants assessed the effects of gamma-tocopherol supplementation on meat quality in an experiment in which pork from pigs fed one of three dietary concentrations of gamma-tocopherol was compared to pork from pigs fed either no supplemental tocopherol in excess of amounts needed to support growth and development, or one of three dietary concentrations of alpha-tocopherol.
as §1
(§6) The levels of alpha-tocopherol supplementation chosen were those previously shown to improve meat quality and the pigs consuming these diets were used as positive controls. Pigs consuming diets without additional supplementation of alpha or gamma-tocopherol were used as negative controls. Pork quality was assessed using standard methods, including pH, Japanese color score, oxidative stability, retail display appearance and Minolta color values.
(§7) The trial was terminated when the average weight of a treatment replicate reached 260 pounds (minimum of 60 days). Standard carcass data (hot carcass weight, backfat, loin depth and lean) were collected. In addition to the standard carcass data collected at the slaughter plant, color, pH, marbling, firmness and Hunter Lab data were collected. Loin and ham samples were also collected for determination of gamma-tocopherol concentration.
as §4

pigs [6] = assay: Minolta Chroma Meter L*, a*, b* of pork chops in simulated retail display; format: in vivo
Protocol: as §1, §2, §4

pigs [7] = assay: Pork loin pH in swine feeding trial; format: in vivo
Protocol: as §5, §1, §6, §7, §3, §4

lambs [8] = assay: Lamb loin chop coloration in retail display (Hunter values, trained panel); format: in vivo; conditions: for Hunter L / Hunter a / Hunter b: lamb loin chops, retail case display; for Discoloration: lean discoloration; for Discoloration / Brown color intensity: trained panel
Protocol: Following carcass fabrication, one boneless leg and the double loin were collected from each carcass, vacuum-packaged, transported and stored under refrigeration (2 to 4° C.) for seven days. […] chops were fabricated from the semimembranosus muscle from each leg following storage. Leg and double-loin chops were wrapped in oxygen permeable fresh meat PVC film. […] The leg chops and second portion of double loin chops were stored in a walk-in cooler.
After seven days in storage, the leg and loin were placed in a display case for nine days to simulate retail meat counter display conditions. Both sides of the double loin chops were evaluated on days 1, 3, 5 and 9 of retail case display for percent lean discoloration and intensity of brownness by a seven-member trained panel and also by a Spectroguard Computer Color Control System. Left and right observation values were averaged.

lambs [9] = assay: Lamb carcass characteristics; format: in vivo; conditions: for Bone maturity: A0 = 1.0 ... A90 = 1.9; for Leg score: high Prime = 15 ... low Choice = 10; for Adjusted fat / Body wall thickness / Dressing percentage / Quality grade / Rib eye area / Yield grade: in vivo; for Hot carcass weight: lambs, 500 IU/kg/day for 45 days; for Flank streaking: trace = 1, slight = 2, small = 3
From the text: Interim and final weights were taken on two consecutive days after 20 and 43 days on test, respectively, to calculate average daily weight gain (ADG) and feed conversion. On the 45th day on test, the lambs were transported to a commercial packing plant and slaughtered the following morning. Standard carcass data were collected.
Characteristics included hot carcass weight, adjusted fat, rib eye area, and body wall thickness. As indicated in the last two columns under Contrasts (P values), there were no statistically significant differences (P<0.05) in carcass measurements between the alpha and gamma groups or between the control group and the alpha and gamma groups.

[10] = pork, all supplemented levels pooled
[11] = five-point scale, all supplemented levels pooled
[12] = pork loin, all supplemented levels pooled
[13] = dietary level 300 IU, listed as gamma-tocopherol

Structure (SMILES): Cc1c(C)c2c(c(C)c1O)CC[C@@](C)(CCC[C@H](C)CCC[C@H](C)CCCC(C)C)O2 [Alpha-tocopherol, alpha-tocopherol, reference compound]
- Oxidative stability (5 day storage TBA) (pigs [1]; dietary level 300 IU): .134 mg malonaldehyde per 1000 grams of meat
- Oxidative stability (5 day storage TBA) (pigs [1]; dietary level 450 IU): .072 mg malonaldehyde per 1000 grams of meat
- Oxidative stability (5 day storage TBA) (pigs [1]; [10]): .103 mg malonaldehyde per 1000 grams of meat
- absorbed in the bloodstream [2]: about 100%
- Corresponding quartile loin pH average (pigs [3]; 1st Q of the ranked parameter): 5.80
- Corresponding quartile loin pH average (pigs [3]; 2nd Q of the ranked parameter): 5.78
- Corresponding quartile loin pH average (pigs [3]; 3rd Q of the ranked parameter): 6.01
- Corresponding quartile loin pH average (pigs [3]; 4th Q of the ranked parameter): 5.93
- Appearance score (after 5 day retail display) (pigs [4]; dietary level 300 IU): 3.49
- Appearance score (after 5 day retail display) (pigs [4]; dietary level 450 IU): 4.09
- Appearance score (after 5 day retail display) (pigs [4]; [11]): 3.79
- Japanese Color Score (pigs [5]; dietary level 300 IU): 3.56^ab
- Japanese Color Score (pigs [5]; dietary level 450 IU): 3.94^ab
- Japanese Color Score (pigs [5]; [12]): 3.75
- Minolta L* values (after 5 day retail display) (pigs [6]; all supplemented levels pooled): 43.6
- Minolta a* values (after 5 day retail display) (pigs [6]; all supplemented levels pooled): 7.49
- Minolta b* values (after 5 day retail display) (pigs [6]; all supplemented levels pooled): 4.95
- Minolta L* values (after 5 day retail display) (pigs [6]; dietary level 300 IU): 45.3^ab
- Minolta a* values (after 5 day retail display) (pigs [6]; dietary level 300 IU): 8.40^a
- Minolta b* values (after 5 day retail display) (pigs [6]; dietary level 300 IU): 5.93^ab
- Minolta L* values (after 5 day retail display) (pigs [6]; dietary level 450 IU): 41.9^bc
- Minolta a* values (after 5 day retail display) (pigs [6]; dietary level 450 IU): 6.58^b
- Minolta b* values (after 5 day retail display) (pigs [6]; dietary level 450 IU): 3.97^bc
- PH (pigs [7]; all supplemented levels pooled): 5.97
- PH (pigs [7]; dietary level 300 IU): 6.08^ab
- PH (pigs [7]; dietary level 450 IU): 5.85^b
- Hunter L (lambs [8]): 36.3^b
- Hunter a (lambs [8]): 11.9
- Hunter b (lambs [8]): 7.54
- Discoloration (lambs [8]): 12.6%
- Brown color intensity (lambs [8]): 8.30^b
- Bone maturity (lambs [9]): 1.47^b
- Leg score (lambs [9]): 10.8
- Adjusted fat (lambs [9]): 0.55 cm
- Body wall thickness (lambs [9]): 2.13 cm
- Dressing percentage (lambs [9]): 48.2
- Quality grade (lambs [9]): 5.27
- Rib eye area (lambs [9]): 5.63 sq. cm
- Yield grade (lambs [9]): 2.42
- Hot carcass weight (lambs [9]): 27.4 kg
- Flank streaking (lambs [9]): 3.02^a

Structure (SMILES): Cc1c(O)cc2c(c1C)O[C@](C)(CCC[C@H](C)CCC[C@H](C)CCCC(C)C)CC2 [Gamma-tocopherol, gamma-tocopherol]
- Oxidative stability (5 day storage TBA) (pigs [1]; dietary level 150 IU): .177 mg malonaldehyde per 1000 grams of meat
- Oxidative stability (5 day storage TBA) (pigs [1]; dietary level 300 IU): .080 mg malonaldehyde per 1000 grams of meat
- Oxidative stability (5 day storage TBA) (pigs [1]; [13]): 0.080 mg malonaldehyde per 1000 gram
- Oxidative stability (5 day storage TBA) (pigs [1]; dietary level 450 IU): .125 mg malonaldehyde per 1000 grams of meat
- Oxidative stability (5 day storage TBA) (pigs [1]; [10]): .102 mg malonaldehyde per 1000 grams of meat
- absorbed in the bloodstream [2]: 3–19%
- Corresponding quartile loin pH average (pigs [3]; 1st Q of the ranked parameter): 6.03
- Corresponding quartile loin pH average (pigs [3]; 2nd Q of the ranked parameter): 5.95
- Corresponding quartile loin pH average (pigs [3]; 3rd Q of the ranked parameter): 5.77
- Corresponding quartile loin pH average (pigs [3]; 4th Q of the ranked parameter): 5.77
- Appearance score (after 5 day retail display) (pigs [4]; dietary level 150 IU): 4.05
- Appearance score (after 5 day retail display) (pigs [4]; dietary level 300 IU): 4.06
- Appearance score (after 5 day retail display) (pigs [4]; dietary level 450 IU): 3.72
- Appearance score (after 5 day retail display) (pigs [4]; [11]): 3.89
- Japanese Color Score (pigs [5]; dietary level 150 IU): 3.18^ab
- Japanese Color Score (pigs [5]; dietary level 300 IU): 4.32^a
- Japanese Color Score (pigs [5]; dietary level 450 IU): 3.56^ab
- Japanese Color Score (pigs [5]; [12]): 3.94
- Minolta L* values (after 5 day retail display) (pigs [6]; all supplemented levels pooled): 41.4
- Minolta a* values (after 5 day retail display) (pigs [6]; all supplemented levels pooled): 8.13
- Minolta b* values (after 5 day retail display) (pigs [6]; all supplemented levels pooled): 4.48
- Minolta L* values (after 5 day retail display) (pigs [6]; dietary level 150 IU): 42.4^bc
- Minolta a* values (after 5 day retail display) (pigs [6]; dietary level 150 IU): 7.57^ab
- Minolta b* values (after 5 day retail display) (pigs [6]; dietary level 150 IU): 5.13^bc
- Minolta L* values (after 5 day retail display) (pigs [6]; dietary level 300 IU): 39.7^c
- Minolta a* values (after 5 day retail display) (pigs [6]; dietary level 300 IU): 8.20^a
- Minolta b* values (after 5 day retail display) (pigs [6]; dietary level 300 IU): 3.85^c
- Minolta a* values (after 5 day retail display) (pigs [6]; [13]): 8.40
- Minolta L* values (after 5 day retail display) (pigs [6]; dietary level 450 IU): 43.0^b
- Minolta a* values (after 5 day retail display) (pigs [6]; dietary level 450 IU): 8.05^a
- Minolta b* values (after 5 day retail display) (pigs [6]; dietary level 450 IU): 5.12^bc
- PH (pigs [7]; all supplemented levels pooled): 6.11
- PH (pigs [7]; dietary level 150 IU): 5.99^ab
- PH (pigs [7]; dietary level 300 IU): 6.28^a
- PH (pigs [7]; dietary level 450 IU): 5.94^b
- Hunter L (lambs [8]): 38.4^a
- Hunter a (lambs [8]): 11.7
- Hunter b (lambs [8]): 8.11
- Discoloration (lambs [8]): 13.7%
- Brown color intensity (lambs [8]): 10.3^ab
- Bone maturity (lambs [9]): 1.62^ab
- Leg score (lambs [9]): 10.8
- Adjusted fat (lambs [9]): 0.47 cm
- Body wall thickness (lambs [9]): 1.92 cm
- Dressing percentage (lambs [9]): 46.8
- Quality grade (lambs [9]): 5.23
- Rib eye area (lambs [9]): 5.62 sq. cm
- Yield grade (lambs [9]): 2.19
- Hot carcass weight (lambs [9]): 27.7 kg
- Flank streaking (lambs [9]): 2.40^ab

From US6977269B1, “Method of improving animal tissue quality” (Pioneer Hi-Bred International, Inc, priority 2001, dated 2005)
